PubChem BioAssay AID2060329 (Molecular Pharmacology Branch, DTP, NCI, 2025)
Where “and” joins values, the source holds several entries; their conditions need not be identical. Equal entries are not always repeated.

System: MCF7 multi-cell spheroids with HUVEC/MSC, viability
Test: Anticancer human tumor MCF7 cell line growth inhibition [IpAb];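 further: spheroids exposed to agents for seven days before readout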
Conditions: for viability, T/C: stronger effect = lower value
Outline: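 Multi-cell spheroids of 60% tumour cells, 25% HUVEC and 15% MSC in ultra-low-attachment U-bottom wells, treated with agents combined with ipatasertib or abemaciclib. Half-log ranges top out near clinical Cmax, or 10 microM when Cmax is unknown.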

[1] = curve of first compound, second compound 0.1 µM
[2] = curve of first compound, second compound 0.316 µM
[3] = curve of first compound, second compound 1 µM
[4] = curve of first compound, second compound 3.16 µM
[5] = curve of first compound, second compound 10 µM
[6] = second compound 0.1 µM, first compound 0.00316 µM
[7] = second compound 0.1 µM, first compound 0.01 µM
[8] = second compound 0.1 µM, first compound 0.0316 µM
[9] = second compound 0.1 µM, first compound 0.1 µM
[10] = second compound 0.1 µM, first compound 0.316 µM
[11] = second compound 0.1 µM, first compound 1 µM
[12] = second compound 0.316 µM, first compound 0.00316 µM
[13] = second compound 0.316 µM, first compound 0.01 µM
[14] = second compound 0.316 µM, first compound 0.0316 µM
[15] = second compound 0.316 µM, first compound 0.1 µM
[16] = second compound 0.316 µM, first compound 0.316 µM
[17] = second compound 0.316 µM, first compound 1 µM
[18] = second compound 1 µM, first compound 0.00316 µM
[19] = second compound 1 µM, first compound 0.01 µM
[20] = second compound 1 µM, first compound 0.0316 µM
[21] = second compound 1 µM, first compound 0.1 µM
[22] = second compound 1 µM, first compound 0.316 µM
[23] = second compound 1 µM, first compound 1 µM
[24] = second compound 3.16 µM, first compound 0.0316 µM
[25] = second compound 3.16 µM, first compound 0.1 µM
[26] = second compound 3.16 µM, first compound 0.316 µM
[27] = second compound 3.16 µM, first compound 1 µM
[28] = second compound 10 µM, first compound 0.0316 µM
[29] = second compound 10 µM, first compound 0.1 µM
[30] = second compound 10 µM, first compound 0.316 µM
[31] = second compound 10 µM, first compound 1 µM

COc1c(OCCCN2CCOCC2)ccc2c3n(c(=NC(=O)c4cnc(N)nc4)nc12)CCN3 + CC(C)NCC(C(=O)N1CCN(c2ncnc3c2C(C)CC3O)CC1)c1ccc(Cl)cc1
IC50 [1]: 0.0492 µM | IC50 [2]: 0.0317 µM | IC50 [3]: 0.0146 µM | IC50 [4]: < 0.00316 µM | IC50 [5]: < 0.00316 µM | viability, T/C [6]: 86% | viability, T/C [7]: 80.2% | viability, T/C [8]: 58.3% | viability, T/C [9]: 37% | viability, T/C [10]: 9.3% | viability, T/C [11]: 11.8% | viability, T/C [12]: 75.1% | viability, T/C [13]: 65.8% | viability, T/C [14]: 49.8% | viability, T/C [15]: 30.5% | viability, T/C [16]: 9.83% | viability, T/C [17]: 12.4% | viability, T/C [18]: 61.9% | viability, T/C [19]: 56.4% | viability, T/C [20]: 37.7% | viability, T/C [21]: 22% | viability, T/C [22]: 10.7% | viability, T/C [23]: 11.2% | viability, T/C (second compound 3.16 µM, first compound 0.00316 µM): 45.9% | viability, T/C (second compound 3.16 µM, first compound 0.01 µM): 48.7% | viability, T/C [24]: 35.4% | viability, T/C [25]: 32% | viability, T/C [26]: 9.39% | viability, T/C [27]: 10.6% | viability, T/C (second compound 10 µM, first compound 0.00316 µM): 33.8% | viability, T/C (second compound 10 µM, first compound 0.01 µM): 34.9% | viability, T/C [28]: 37.4% | viability, T/C [29]: 21.7% | viability, T/C [30]: 6.28% | viability, T/C [31]: 5.07%

CCCS(=O)(=O)Nc1ccc(F)c(C(=O)c2c[nH]c3ncc(-c4ccc(Cl)cc4)cc23)c1F + CC(C)NCC(C(=O)N1CCN(c2ncnc3c2C(C)CC3O)CC1)c1ccc(Cl)cc1
IC50 [1]: > 10 µM | IC50 [2]: > 10 µM | IC50 [3]: > 10 µM | IC50 [4]: > 10 µM | IC50 [5]: 0.0316 µM | viability, T/C [8]: 97% | viability, T/C [9]: 90% | viability, T/C [10]: 90.3% | viability, T/C [11]: 98.8% | viability, T/C (second compound 0.1 µM, first compound 3.16 µM): 98.5% | viability, T/C (second compound 0.1 µM, first compound 10 µM): 101% | viability, T/C [14]: 85.4% | viability, T/C [15]: 76.6% | viability, T/C [16]: 86.3% | viability, T/C [17]: 76.5% | viability, T/C (second compound 0.316 µM, first compound 3.16 µM): 80.2% | viability, T/C (second compound 0.316 µM, first compound 10 µM): 85.2% | viability, T/C [20]: 73.2% | viability, T/C [21]: 70.3% | viability, T/C [22]: 69.1% | viability, T/C [23]: 64.5% | viability, T/C (second compound 1 µM, first compound 3.16 µM): 71.3% | viability, T/C (second compound 1 µM, first compound 10 µM): 76.6% | viability, T/C [24]: 59.4% | viability, T/C [25]: 60.1% | viability, T/C [26]: 53.5% | viability, T/C [27]: 52.7% | viability, T/C (second compound 3.16 µM, first compound 3.16 µM): 79.8% | viability, T/C (second compound 3.16 µM, first compound 10 µM): 60% | viability, T/C [28]: 43.4% | viability, T/C [29]: 42.7% | viability, T/C [30]: 44.1% | viability, T/C [31]: 52.4% | viability, T/C (second compound 10 µM, first compound 3.16 µM): 53.7% | viability, T/C (second compound 10 µM, first compound 10 µM): 9.37%

Cc1nc(NC(=O)N2CCCC2C(N)=O)sc1-c1ccnc(C(C)(C)C(F)(F)F)c1 (configuration not stated)
viability, T/C (compound 0.0316 µM): 74.8% and 93.7% | viability, T/C (compound 0.1 µM): 64.7% and 93.4% | viability, T/C (compound 0.316 µM): 65.9% and 78.8% | viability, T/C (compound 1 µM): 47.6% and 70.3% | viability, T/C (compound 3.16 µM): 48.1% and 63.4% | viability, T/C (compound 10 µM): 36.2% and 43% | IC50 (curve of compound): 1.54 µM and 6.66 µM

Cn1ncnc1[C@H]1c2n[nH]c(=O)c3cc(F)cc(c23)N[C@@H]1c1ccc(F)cc1 + CCN1CCN(Cc2ccc(Nc3ncc(F)c(-c4cc(F)c5nc(C)n(C(C)C)c5c4)n3)nc2)CC1
IC50 (curve of first compound, second compound 0.01 µM): > 0.1 µM | IC50 (curve of first compound, second compound 0.0316 µM): > 0.1 µM | IC50 [1]: > 0.1 µM | IC50 [2]: > 0.1 µM | IC50 [3]: > 0.1 µM | viability, T/C (second compound 0.01 µM, first compound 0.000316 µM): 95.3% | viability, T/C (second compound 0.01 µM, first compound 0.001 µM): 102% | viability, T/C (second compound 0.01 µM, first compound 0.00316 µM): 115% | viability, T/C (second compound 0.01 µM, first compound 0.01 µM): 98.6% | viability, T/C (second compound 0.01 µM, first compound 0.0316 µM): 106% | viability, T/C (second compound 0.01 µM, first compound 0.1 µM): 92.5% | viability, T/C (second compound 0.0316 µM, first compound 0.000316 µM): 98.6% | viability, T/C (second compound 0.0316 µM, first compound 0.001 µM): 107% | viability, T/C (second compound 0.0316 µM, first compound 0.00316 µM): 83.8% | viability, T/C (second compound 0.0316 µM, first compound 0.01 µM): 89.4% | viability, T/C (second compound 0.0316 µM, first compound 0.0316 µM): 100% | viability, T/C (second compound 0.0316 µM, first compound 0.1 µM): 88.1% | viability, T/C (second compound 0.1 µM, first compound 0.000316 µM): 114% | viability, T/C (second compound 0.1 µM, first compound 0.001 µM): 103% | viability, T/C [6]: 107% | viability, T/C [7]: 87.5% | viability, T/C [8]: 85.1% | viability, T/C [9]: 85.3% | viability, T/C (second compound 0.316 µM, first compound 0.000316 µM): 108% | viability, T/C (second compound 0.316 µM, first compound 0.001 µM): 106% | viability, T/C [12]: 93.4% | viability, T/C [13]: 97.4% | viability, T/C [14]: 90.2% | viability, T/C [15]: 88.7% | viability, T/C (second compound 1 µM, first compound 0.000316 µM): 100% | viability, T/C (second compound 1 µM, first compound 0.001 µM): 105% | viability, T/C [18]: 84.4% | viability, T/C [19]: 100% | viability, T/C [20]: 85.3% | viability, T/C [21]: 85.7%
